Data taken from US20070196421A1, “Soft tissue implants and drug combination compositions, and use thereof” (priority 2005, published 2007).
Blank lines part the entries; values can stand above or below the molecule they belong to.

Tests used:
[1] = in vivo; cited from earlier work
[2] = in vivo; cited from earlier work; remark: listed apart in the source
[3] = water; cited from earlier work
[4] = 200 mg/day orally; cited from earlier work
[5] = molecular target: protein tyrosine phosphatase 1B (PTP1B) (Homo sapiens, UniProt P18031); conditions: cited from earlier work
[6] = system: phosphatases of regenerating liver (PRL); conditions: cited from earlier work
[7] = system: endo-exonuclease; conditions: cited from earlier work
[8] = system: joint swelling; test: chronic in vivo model of inflammation / chronic arthritis model; conditions: agent alone (prednisolone at reduced dose)
[9] = system: TNF-α; test: Rat carrageenan-induced paw edema model: TNF-α in paw tissue by ELISA; type: in vivo; conditions: 2.26 mg/kg
Method: (§1) A dose-range finding study was performed to determine the anti-inflammatory activity of various ratios of methyl prednisolone acetate and amoxapine in a rat carrageenan-induced paw edema model. […] The molar ratio of methyl prednisolone acetate to amoxapine ranged from 1:1 to 1:300, using total doses of methyl prednisolone acetate of 0.01, 0.03 or 0.1 mg/kg.
(§2) The test agent (a combination of methyl prednisolone acetate and amoxapine), vehicle control, or reference agents (methyl prednisolone acetate, amoxapine, or Depo-Medrol®) were administered in the left hind foot pad of rats. After 60 minutes, paw edema was induced by injection of 100 μl of 1% carrageenan in the same foot pad. The paw volume was measured with a water displacement plethysmometer immediately prior to test agent injection (T−1h), at the time of carrageenan injection (T0h), and at T6h. Animals were euthanized by carbon dioxide inhalation. Paw tissue samples were collected and flash frozen in liquid nitrogen. Samples were assayed for TNF-α by enzyme-linked immunoassay (ELISA).

[10] = system: LPS-induced TNF-α production; test: acute in vivo model of inflammation (LPS-induced TNF-α release); conditions: agent alone (prednisolone at reduced dose)
[11] = system: glucocorticoid receptor; test: glucocorticoid receptor trafficking (mechanism study); type: cell-based
[12] = system: NFkB; test: NFkB activation; type: cell-based
[13] = system: NFAT; test: NFAT activation, translocation and transactivation; type: cell-based
[14] = system: carrageenan-induced paw edema; test: Rat carrageenan-induced paw edema model: paw swelling; type: in vivo; conditions: 2.26 mg/kg, local injection in paw at T-1 hr, Tmax = 6 hrs
Method: as §1, §2

[15] = system: ERK; test: ERK activation; type: cell-based
[16] = system: GRE reporter plasmid in T cells; test: transactivation of a transfected GRE reporter plasmid in T cells; type: cell-based
[17] = system: AP1; test: AP1 activation; type: cell-based
[18] = system: p38; test: p38 activation; type: cell-based
[19] = system: JNK; test: JNK activation; type: cell-based
[20] = system: mast cells; conditions: cited from earlier work
[21] = system: eosinophil activation; conditions: cited from earlier work
[22] = system: stromelysin (MMP-3) mRNA; test: IL-1 induced stromelysin (MMP-3) mRNA expression in chondrocytes, Northern blot; conditions: 10^−5 M, 24 hours pretreatment, IL-1β 20 ng/ml
[23] = system: AP-1 transcriptional activity; test: IL-1 stimulated AP-1 transcriptional activity (AP-1 driven CAT reporter gene) in chondrocytes; type: cell-based; conditions: transfected chondrocytes, IL-1 50 ng/ml, 24 hours, paclitaxel 10^−7 to 10^−5 M
Method: Chondrocytes were transfected with constructs containing an AP-1 driven CAT reporter gene, and stimulated with IL-1, IL-1 (50 ng/ml) was added and incubated for 24 hours in the absence and presence of paclitaxel at various concentrations. […] The data noted with an asterisk (*) have significance compared with IL-1-induced CAT activity according to a t-test, P<0.05. The results shown are representative of three independent experiments.

[24] = system: collagenase; test: IL-1 induced collagenase RNA levels in chondrocytes (FIG. 1D); type: cell-based; conditions: pretreatment
[25] = system: AP-1; test: IL-1 induced AP-1 binding activity in chondrocyte lysates (FIG. 1C); type: cell-based; conditions: lysates from chondrocytes pretreated with paclitaxel
[26] = system: collagenase (MMP-1) mRNA; test: IL-1 induced collagenase (MMP-1) mRNA expression in chondrocytes, Northern blot; conditions: 10^−5 M, 24 hours pretreatment, IL-1β 20 ng/ml
[27] = system: AP-1 DNA binding activity; test: IL-1 induced AP-1 DNA binding activity, gel mobility shift assay of chondrocyte extracts; type: cell-based; conditions: chondrocyte lysates, pretreated 10^−7 to 10^−5 M for 24 hours, IL-1β 20 ng/ml
Method: Binding activity was assayed with a radiolabeled human AP-1 sequence probe and gel mobility shift assay. Extracts from chondrocytes untreated or treated with various amounts of paclitaxel (10^−7 to 10^−5 M) followed by IL-1β (20 ng/ml) were incubated with excess probe on ice for 30 minutes, followed by non-denaturing gel electrophoresis. The “com” lane contains excess unlabeled AP-1 oligonucleotide. The results shown are representative of three independent experiments.

[28] = system: stromelysin; test: IL-1 induced stromelysin RNA levels in chondrocytes (FIG. 1D); type: cell-based; conditions: pretreatment

Chain of protein tyrosine phosphatase 1B (PTP1B) (P18031 whole entry): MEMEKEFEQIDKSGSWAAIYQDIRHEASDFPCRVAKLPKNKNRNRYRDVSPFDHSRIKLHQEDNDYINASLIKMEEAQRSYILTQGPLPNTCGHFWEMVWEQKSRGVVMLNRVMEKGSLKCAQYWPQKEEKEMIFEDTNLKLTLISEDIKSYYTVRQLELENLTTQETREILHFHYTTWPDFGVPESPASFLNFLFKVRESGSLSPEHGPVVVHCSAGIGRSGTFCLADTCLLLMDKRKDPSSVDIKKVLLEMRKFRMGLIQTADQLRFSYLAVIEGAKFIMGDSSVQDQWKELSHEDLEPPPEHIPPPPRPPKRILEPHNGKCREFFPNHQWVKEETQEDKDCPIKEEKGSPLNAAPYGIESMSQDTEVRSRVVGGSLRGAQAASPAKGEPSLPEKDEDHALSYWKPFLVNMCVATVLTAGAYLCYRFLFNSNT

SMILES: CN(C)/N=N/c1[nH]cnc1C(N)=O [Dacarbazine, dacarbazine]
absorption from the GI tract [1]: poorly absorbed

SMILES: O=C(Nc1ccc([N+](=O)[O-])cc1Cl)c1cc(Cl)ccc1O [Niclosamide, niclosamide]
toxicity in mammals [2]: very low toxicity

SMILES: CC(=O)N1CCN(c2ccc(OCC3COC(Cn4ccnc4)(c4ccc(Cl)cc4Cl)O3)cc2)CC1 (centres unmarked) [ketoconazole]
solubility in water (in words) [3]: essentially insoluble | serum concentration [4]: about 3.2 micrograms

SMILES: N=C(N)c1ccc(OCCCCCOc2ccc(C(=N)N)cc2)cc1 [pentamidine]
inhibition of protein tyrosine phosphatase 1B (PTP1B) [5]: effective inhibitor | inhibition of the oncogenic phosphatases of regenerating liver (PRL) [6]: potent inhibitor | inhibition of the activity of endo-exonuclease [7]: inhibit

glucocorticoid receptor trafficking [11]: does not promote
SMILES: Clc1ccc2c(c1)C(N1CCNCC1)=Nc1ccccc1O2 [amoxapine]
effect of the single agents in the chronic model [8]: modest or no benefit | TNF-α ± SEM [9]: 32.6 ± 10.1 pg/g | effect of the single agents in the acute / LPS model [10]: modest or no benefit | NFkB activation [12]: partially inhibits | NFAT activation, translocation and transactivation [13]: block | Edema ± SEM [14]: not significantly different from the vehicle treatment | Edema ± SEM ([14]; listed as Amoxapine): 38.1 ± 3.3% | ERK activation [15]: unaffected | potentiation of prednisolone's ability to transactivate a GRE reporter plasmid [16]: does not potentiate | AP1 activation [17]: partially inhibits | p38 activation [18]: Inhibition | JNK activation [19]: Inhibition

SMILES: CCOC(=O)N1CCC(=C2c3ccc(Cl)cc3CCc3cccnc32)CC1 [loratadine, Loratadine]
inhibition of mast cells [20]: inhibits | inhibition of eosinophil activation [21]: inhibits

SMILES: CC(=O)O[C@H]1C(=O)[C@@]2(C)[C@H]([C@H](OC(=O)c3ccccc3)[C@]3(O)C[C@H](OC(=O)[C@H](O)[C@@H](NC(=O)c4ccccc4)c4ccccc4)C(C)=C1C3(C)C)[C@]1(OC(C)=O)CO[C@@H]1C[C@@H]2O [paclitaxel]
stromelysin mRNA level [22]: complete inhibition | IL-1 induced AP-1 reporter gene CAT activity [23]: reduced IL-1 induced AP-1 reporter gene CAT activity | IL-1 induction of collagenase RNA levels [24]: can be inhibited | IL-1 induced binding activity [25]: decreased | collagenase mRNA level [26]: complete inhibition | IL-1 induced AP-1 binding activity [27]: decreased | IL-1 induction of stromelysin RNA levels [28]: can be inhibited
